The test concerns the target human μ-opiate receptor (Homo sapiens, UniProt P35372). The test is described as follows: Affinity for the human μ-opiate receptor ([3H]-naloxone displacement, SPA, CHO-K1 membrane preparation). Type of test: binding. The following applies: for inhibition at 1 µM: read-out: μ-Opioid receptor, % inhibition [1 μM]; for Ki: read-out: μ-Opioid receptor, Ki.

These results are taken from patent US8058475B2, “Substituted cyclohexylmethyl compounds” (Gruenenthal GmbH, priority 2005, dated 2011).

Where two headings read alike, the source gives them in different places.

human μ-opiate receptor, sequence (P35372 whole entry): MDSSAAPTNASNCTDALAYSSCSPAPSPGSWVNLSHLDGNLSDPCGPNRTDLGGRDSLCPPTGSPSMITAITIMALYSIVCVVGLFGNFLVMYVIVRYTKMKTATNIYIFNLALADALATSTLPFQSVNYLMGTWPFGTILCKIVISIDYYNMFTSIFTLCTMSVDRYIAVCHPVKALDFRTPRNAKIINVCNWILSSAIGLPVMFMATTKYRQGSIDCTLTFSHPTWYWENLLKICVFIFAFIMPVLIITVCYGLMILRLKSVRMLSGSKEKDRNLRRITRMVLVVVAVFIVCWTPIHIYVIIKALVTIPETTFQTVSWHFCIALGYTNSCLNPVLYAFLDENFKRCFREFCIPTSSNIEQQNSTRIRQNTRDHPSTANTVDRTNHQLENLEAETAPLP

`CN(C)C(c1cccc(F)c1)C1CCC(CNC(=O)c2cc(Cl)cc(Cl)c2)CC1` (stereo not shown) [compound 371, 3,5-dichloro-N-{4-[dimethylamino-(3-fluoro-phenyl)-methyl]-cyclohexylmethyl}-benzamide]: the inhibition at 1 µM turned out to be 84% and the inhibition constant (Ki) stood at 0.13 µM.

For the compound `Cc1oc(-c2ccccc2)cc1C(=O)NCC1CCC(C(c2cccc(F)c2)N(C)C)CC1` (stereo not shown) [compound 373, 2-methyl-5-phenyl-furan-3-carboxylic acid {4-[dimethylamino-(3-fluoro-phenyl)-methyl]-cyclohexylmethyl}-amide], the Ki worked out at 0.061 µM. Also, where the note is “1 µM”, the “μ-Opioid receptor, % inhibition [1 μM]” value is reported as 84%.

For the compound `CN(C)C(c1ccccc1)C1CCC(CNC(=O)c2cccnc2Sc2ccc(Cl)cc2)CC1` (stereo not shown) [compound 374, 2-(4-chloro-phenylsulfanyl)-N-[4-(dimethylamino-phenyl-methyl)-cyclohexyl-methyl]-nicotinamide], the inhibition at 1 µM amounted to 84%.

`CCn1nc(C)c(Br)c1C(=O)NCC1CCC(C(c2cccs2)N(C)C)CC1` (stereo not shown) [compound 375, 4-bromo-2-ethyl-5-methyl-2H-pyrazole-3-carboxylic acid [4-(dimethylamino-thiophen-2-yl-methyl)-cyclohexylmethyl]-amide]: the inhibition at 1 µM amounted to 84%.

Take `COc1c(C(=O)NCC2CCC(C(c3ccc(F)cc3)N(C)C)CC2)csc1Cl` (stereo not shown) [compound 376, 5-chloro-4-methoxy-thiophene-3-carboxylic acid {4-[dimethylamino-(4-fluoro-phenyl)-methyl]-cyclohexylmethyl}-amide]: the inhibition at 1 µM was 84% and the Ki is 0.04 µM.

`Cc1cc(C(=O)NCC2CCC(C(c3ccccc3)N(C)C)CC2)no1` (stereo not shown) [compound 379, 5-methyl-isoxazole-3-carboxylic acid [4-(dimethylamino-phenyl-methyl)-cyclohexylmethyl]-amide]: the inhibition at 1 µM worked out at 83%.

For the compound `CN(C)C(CCc1ccccc1)C1CCC(CNC(=O)c2csc3ccccc23)CC1` (stereo not shown) [compound 380, benzo[b]thiophene-3-carboxylic acid [4-(1-dimethylamino-3-phenyl-propyl)-cyclohexylmethyl]-amide], the inhibition at 1 µM was 83% and the inhibition constant (Ki) worked out at 0.095 µM.

Turning to `CSc1ncccc1C(=O)NCC1CCC(C(c2ccc(F)cc2)N(C)C)CC1` (stereo not shown) [compound 381, N-{4-[dimethylamino-(4-fluoro-phenyl)-methyl]-cyclohexylmethyl}-2-methyl-sulfanyl-nicotinamide], the “μ-Opioid receptor, % inhibition [1 μM]” value was determined as 83% and the Ki was 0.099 µM.

Consider `Cc1ccc(Oc2ncccc2C(=O)NCC2CCC(C(c3ccc(Cl)cc3)N(C)C)CC2)cc1` (stereo not shown) [compound 382, N-{4-[(4-chloro-phenyl)-dimethylamino-methyl]-cyclohexylmethyl}-2-p-tolyloxy-nicotinamide], for which the inhibition at 1 µM is 83%.

`Cc1ccccc1C(=O)NCC1CCC(C(c2cccc(F)c2)N(C)C)CC1` (stereo not shown) [compound 384, N-{4-[dimethylamino-(3-fluoro-phenyl)-methyl]-cyclohexylmethyl}-2-methyl-benzamide]: the inhibition at 1 µM worked out at 82% and the inhibitory constant (Ki) stood at 0.038 µM.

For `Cc1cc(C(=O)NCC2CCC(C(c3ccc(Cl)cc3)N(C)C)CC2)no1` (stereo not shown) [compound 385, 5-methyl-isoxazole-3-carboxylic acid {4-[(4-chloro-phenyl)-dimethylamino-methyl]-cyclohexylmethyl}-amide], the inhibition at 1 µM came to 82% and the Ki turned out to be 0.068 µM.

As for `CN(C)C(c1ccccc1)C1CCC(CNC(=O)c2cncc(Br)c2)CC1` (stereo not shown) [compound 386, 5-bromo-N-[4-(dimethylamino-phenyl-methyl)-cyclohexylmethyl]-nicotinamide], the inhibition at 1 µM was 82% and the Ki is 0.1 µM.

Turning to `CCC(C)C(=O)NCC1CCC(C(c2ccccc2)N(C)C)CC1` (stereo not shown) [compound 387, N-[4-(dimethylamino-phenyl-methyl)-cyclohexylmethyl]-2-methyl-butyramide], the inhibition at 1 µM is 81% and the Ki is 0.07 µM.

As to `CCSc1ncccc1C(=O)NCC1CCC(C(c2cccc(F)c2)N(C)C)CC1` (stereo not shown) [compound 388, N-{4-[dimethylamino-(3-fluoro-phenyl)-methyl]-cyclohexylmethyl}-2-ethylsulfanyl-nicotinamide], the inhibition at 1 µM was 81% and the inhibitory constant (Ki) turned out to be 0.036 µM.

`CCn1nc(C)c(Br)c1C(=O)NCC1CCC(C(c2ccccc2)N(C)C)CC1` (stereo not shown) [compound 390, 4-bromo-2-ethyl-5-methyl-2H-pyrazole-3-carboxylic acid [4-(dimethylamino-phenyl-methyl)-cyclohexylmethyl]-amide]: the inhibition at 1 µM worked out at 81%.

Take `CC(Oc1ccccc1)C(=O)NCC1CCC(C(c2ccc(Cl)cc2)N(C)C)CC1` (stereo not shown) [compound 391, N-{4-[(4-chloro-phenyl)-dimethylamino-methyl]-cyclohexylmethyl}-2-phenoxy-propionamide]: the inhibition at 1 µM worked out at 81% and the Ki was found to be 0.026 µM.

Take `CN(C)C(c1ccccc1)C1CCC(CNC(=O)c2cc([N+](=O)[O-])cc([N+](=O)[O-])c2)CC1` (stereo not shown) [compound 392, N-[4-(dimethylamino-phenyl-methyl)-cyclohexylmethyl]-3,5-dinitro-benzamide]: the inhibition at 1 µM turned out to be 80%. Further, the Ki (acylated amines (Table 20)) is 0.18 µM.

For `COc1cccc(C(=O)NCC2CCC(C(c3ccc(Cl)cc3)N(C)C)CC2)c1` (stereo not shown) [compound 393, N-{4-[(4-chloro-phenyl)-dimethylamino-methyl]-cyclohexylmethyl}-3-methoxy-benzamide], the inhibition at 1 µM came to 80% and the Ki stood at 0.044 µM.

For the compound `CN(C)C(c1ccc(Cl)cc1)C1CCC(CNC(=O)c2ccccc2Br)CC1` (stereo not shown) [compound 394, 2-bromo-N-{4-[(4-chloro-phenyl)-dimethylamino-methyl]-cyclohexylmethyl}-benzamide], the inhibition at 1 µM was 79% and the inhibition constant Ki was found to be 0.048 µM.

As for `CN(C)C(c1ccc(Cl)cc1)C1CCC(CCNC(=O)c2ccccc2Br)CC1` (stereo not shown) [compound 395, 2-bromo-N-(2-{4-[(4-chloro-phenyl)-dimethylamino-methyl]-cyclohexyl}-ethyl)-benzamide], the inhibition at 1 µM amounted to 81% and the inhibitory constant (Ki) worked out at 0.046 µM.

For the compound `CN(C)C(c1cccc(F)c1)C1CCC(CCNC(=O)c2ccccc2Br)CC1` (stereo not shown) [compound 396, 2-bromo-N-(2-{4-[dimethylamino-(3-fluoro-phenyl)-methyl]-cyclohexyl}-ethyl)-benzamide], the inhibition at 1 µM was determined as 97% and the inhibition constant (Ki) was found to be 0.012 µM.

In the case of `CN(C)C(c1ccc(Cl)cc1)C1CCC(CCNC(=O)c2cccc(Cl)c2)CC1` (stereo not shown) [compound 399, 3-chloro-N-(2-{4-[(4-chloro-phenyl)-dimethylamino-methyl]-cyclohexyl}-ethyl)-benzamide], the inhibition at 1 µM turned out to be 80% and the Ki came to 0.11 µM.

For the compound `CN(C)C(c1ccccc1)C1CCC(CCNC(=O)c2ccccc2Cl)CC1` (stereo not shown) [compound 402, 2-chloro-N-{2-[4-(dimethylamino-phenyl-methyl)-cyclohexyl]-ethyl}-benzamide], the inhibition at 1 µM amounted to 96% and the Ki is 0.0079 µM.

Turning to `CN(C)C(c1ccc(Cl)cc1)C1CCC(CCNC(=O)c2ccccc2Cl)CC1` (stereo not shown) [compound 403, 2-chloro-N-(2-{4-[(4-chloro-phenyl)-dimethylamino-methyl]-cyclohexyl}-ethyl)-benzamide], the inhibition at 1 µM is 81% and the Ki was 0.074 µM.

As for `CN(C)C(c1cccc(F)c1)C1CCC(CCNC(=O)c2ccccc2Cl)CC1` (stereo not shown) [compound 404, 2-chloro-N-(2-{4-[dimethylamino-(3-fluoro-phenyl)-methyl]-cyclohexyl}-ethyl)-benzamide], the inhibition at 1 µM was 97% and the Ki came out at 0.019 µM.

Take `CN(C)C(c1ccccc1)C1CCC(CCNC(=O)c2ccc(Cl)cc2)CC1` (stereo not shown) [compound 405, 4-chloro-N-{2-[4-(dimethylamino-phenyl-methyl)-cyclohexyl]-ethyl}-benzamide]: the inhibition at 1 µM turned out to be 88% and the inhibition constant (Ki) worked out at 0.025 µM.

With `CN(C)C(c1cccc(F)c1)C1CCC(CCNC(=O)c2ccc(Cl)cc2)CC1` (stereo not shown) [compound 406, 4-chloro-N-(2-{4-[dimethylamino-(3-fluoro-phenyl)-methyl]-cyclohexyl}-ethyl)-benzamide], the inhibition at 1 µM was 81% and the Ki was 0.04 µM.

On to `CN(C)C(c1ccccc1)C1CCC(CCNC(=O)c2ccc(F)cc2)CC1` (stereo not shown) [compound 407, N-{2-[4-(dimethylamino-phenyl-methyl)-cyclohexyl]-ethyl}-4-fluoro-benzamide], for which the inhibition at 1 µM was found to be 87% and the Ki is 0.048 µM.

On to `CN(C)C(c1ccc(Cl)cc1)C1CCC(CCNC(=O)c2ccc(F)cc2)CC1` (stereo not shown) [compound 408, N-(2-{4-[(4-chloro-phenyl)-dimethylamino-methyl]-cyclohexyl}-ethyl)-4-fluoro-benzamide], for which the inhibition at 1 µM was 82% and the Ki turned out to be 0.012 µM.

Turning to `CN(C)C(c1cccc(F)c1)C1CCC(CCNC(=O)c2ccc(F)cc2)CC1` (stereo not shown) [compound 409, N-(2-{4-[dimethylamino-(3-fluoro-phenyl)-methyl]-cyclohexyl}-ethyl)-4-fluoro-benzamide], the inhibition at 1 µM was 84% and the inhibitory constant (Ki) worked out at 0.028 µM.

For the compound `CN(C)C(c1ccccc1)C1CCC(CCNC(=O)c2ccccc2F)CC1` (stereo not shown) [compound 410, N-{2-[4-(dimethylamino-phenyl-methyl)-cyclohexyl]-ethyl}-2-fluoro-benzamide], the inhibition at 1 µM came out at 88% and the inhibition constant Ki was determined as 0.0058 µM.

Take `CN(C)C(c1cccc(F)c1)C1CCC(CCNC(=O)c2ccccc2F)CC1` (stereo not shown) [compound 411, N-(2-{4-[dimethylamino-(3-fluoro-phenyl)-methyl]-cyclohexyl}-ethyl)-2-fluoro-benzamide]: the inhibition at 1 µM amounted to 99% and the Ki was 0.011 µM.

For the compound `Cc1cccc(C(=O)NCCC2CCC(C(c3cccc(F)c3)N(C)C)CC2)c1` (stereo not shown) [compound 412, N-(2-{4-[dimethylamino-(3-fluoro-phenyl)-methyl]-cyclohexyl}-ethyl)-3-methyl-benzamide], the inhibition at 1 µM came out at 93% and the Ki was 0.032 µM.

For orientation: inhibition means how much of the control response was suppressed. What is called Ki is the dissociation constant of the complex between target and ligand, obtained from inhibition or displacement.
